According to patent US12448388B2, “PRMT5 inhibitors and uses thereof” (Gilead Sciences, Inc., priority 2023, dated 2025):
Like-named read-outs stand apart in the source and are kept apart here.

How the values were obtained:
[1] = test system: SW780 (bladder, urothelial carcinoma; MTAP-Deleted); assay: In vitro cell viability assay (CellTiter-Glo, 9 days), SW780; type: cell-based; conditions: Homo sapiens, SW780, 216 h, 9-day treatment
Method: Some Compounds of the Disclosure were tested in Calu-6 (Vendor: ATCC; Cat #HTB-56; Description: lung, adenocarcinoma), LU99 (Vendor: JCRB; Cat #JCRB0080; Description: lung, giant cell carcinoma), SW780 (Vendor: ATCC; Cat #CRL-2169; Description: bladder, urothelial carcinoma), and BxPC-3 (Vendor: ATCC; Cat #CRL-1687; Description: pancreas, adenocarcinoma) cellular viability assays according to the general protocol. Seeded cells into 96-well plate and incubated overnight. Seeded an additional 10 wells per cell line in an additional 96-well plate for assessing Time Zero luminescence and incubated overnight. To treatment plates, added compounds into each well using Tecan D300e dispenser (nine three-fold dilutions starting at […]) and incubated for 9 days. Time Zero (no compound treatment, luminescence assessed on day 1) and 9-day treatment (luminescence assessed on day 10) plates were assessed using the same CellTiter-Glo® substrate protocol. Thawed CellTiter-Glo® Buffer and lyophilized CellTiter-Glo® substrate and equilibrated to room temperature prior to use. Transferred 100 ml CellTiter-Glo® Buffer into amber bottle containing CellTiter-Glo® substrate to reconstitute the lyophilized enzyme/substrate mixture. For Time Zero and 9-day treatment plates, removed all plating media. Added 100 μl fresh media/well. Added 100 μl CellTiter-Glo® Reagent per well. Mixed contents for 10 min on an orbital shaker to lyse cells. Recorded luminescence with Perkin Elmer Envision 2105 machine. Analyzed the data with GraphPad software.

hERG ion channel = target: T1, hERG ion channel (Homo sapiens, UniProt Q12809); assay: hERG assay (automated patch clamp, QPatch HT); type: cell-based; conditions: HEK293 hERG, * = accurate hERG measurement may be limited by compound solubility
T1 construct: host or cells: HEK293
T1 sequence (Q12809 whole entry): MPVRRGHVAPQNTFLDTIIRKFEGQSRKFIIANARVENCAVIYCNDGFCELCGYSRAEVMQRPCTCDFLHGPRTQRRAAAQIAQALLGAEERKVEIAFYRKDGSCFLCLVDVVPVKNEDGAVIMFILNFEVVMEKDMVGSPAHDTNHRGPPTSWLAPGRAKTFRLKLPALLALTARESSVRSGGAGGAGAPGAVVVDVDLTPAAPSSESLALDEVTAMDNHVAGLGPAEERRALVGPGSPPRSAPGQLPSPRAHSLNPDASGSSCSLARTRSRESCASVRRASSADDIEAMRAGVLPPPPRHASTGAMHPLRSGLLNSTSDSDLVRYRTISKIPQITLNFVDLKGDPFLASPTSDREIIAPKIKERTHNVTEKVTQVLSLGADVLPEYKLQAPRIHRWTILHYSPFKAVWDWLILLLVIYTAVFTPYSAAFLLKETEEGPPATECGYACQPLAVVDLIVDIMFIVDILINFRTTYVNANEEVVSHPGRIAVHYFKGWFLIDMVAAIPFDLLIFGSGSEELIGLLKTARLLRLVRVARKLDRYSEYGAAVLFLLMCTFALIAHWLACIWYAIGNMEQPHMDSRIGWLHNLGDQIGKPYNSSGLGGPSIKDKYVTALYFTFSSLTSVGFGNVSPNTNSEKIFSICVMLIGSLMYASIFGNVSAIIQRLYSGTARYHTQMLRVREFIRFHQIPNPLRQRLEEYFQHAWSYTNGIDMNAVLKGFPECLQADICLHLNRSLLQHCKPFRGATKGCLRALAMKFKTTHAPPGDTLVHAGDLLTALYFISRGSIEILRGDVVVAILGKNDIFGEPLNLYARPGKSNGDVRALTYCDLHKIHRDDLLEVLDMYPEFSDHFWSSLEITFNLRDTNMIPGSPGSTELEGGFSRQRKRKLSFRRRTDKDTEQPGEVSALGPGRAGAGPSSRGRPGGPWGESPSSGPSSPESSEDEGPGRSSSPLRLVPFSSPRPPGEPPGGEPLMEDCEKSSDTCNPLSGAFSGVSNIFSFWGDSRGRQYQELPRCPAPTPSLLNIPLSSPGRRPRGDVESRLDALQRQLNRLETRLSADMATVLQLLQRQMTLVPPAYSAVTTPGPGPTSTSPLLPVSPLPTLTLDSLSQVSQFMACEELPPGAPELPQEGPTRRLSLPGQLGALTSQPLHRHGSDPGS
Method: Cell lines and cell culture: The HEK293 cell line stably expressing the hERG ion channel was provided from Charles River laboratories. Cells were maintained in tissue culture incubators per Charles River Laboratories SOP. Stocks were maintained in cryogenic storage. HEK293 cells were stably transfected with hERG cDNA.
Automated Patch Clamp Procedures: In preparation for a recording session, intracellular solution was loaded into the intracellular compartments of the QPlate and cell suspension was pipetted into the extracellular compartments. After establishment of a whole-cell configuration, membrane currents were recorded using up to 48 parallel patch clamp amplifiers in the QPatch HT® system. The current records were sampled at 2000 Hz and low-pass Bessel filtered at 400 Hz.
Valid whole-cell recordings met the following criteria: • 1. Membrane resistance ≥200 MΩ. • 2. Leak current 25% channel current or subtracted.
hERG Test Procedures: Onset and block of hERG current was measured using a stimulus voltage pattern consisting of a 500 ms prepulse to −40 mV (leakage subtraction), a 2-second activating pulse to +40 mV followed by a 2-second test pulse to −40 mV. The pulse pattern was repeated continuously at 10 s intervals from a holding potential of −80 mV. Peak tail current was measured during the −40 mV test pulse. Leakage current was calculated from the current amplitude evoked by the −40 mV prepulse and subtracted from the total membrane current record.
Data Analysis: Data acquisition and analysis were performed using the QPatch Assay Software (Sophion Bioscience A/S, Denmark). Steady state was defined by the limiting constant rate of change with time (linear time dependence). The steady state before and after test article application were used to calculate the percentage of current inhibited at each concentration. Run down, a time-dependent reduction of current amplitude, may be compensated for in the QPatch Assay Software using standard system tools. Concentration-response data was fit to an equation of the following form: […]
Where [Test] is the concentration of test compound, IC50 is the concentration of the test compound producing half-maximal inhibition, N is the Hill coefficient and % Block is the percentage of current inhibited at each concentration of the test article. Nonlinear least squares fits will be solved with the Solver add-in for Excel 2000 or later (Microsoft, Redmond, WA).

[2] = Pharmacokinetics in cassette in male cynomolgus monkeys for Kp measurement; type: in vivo; conditions: cynomolgus monkey, 0.5 mg/kg, intravenous
Method: F.1 Test Animal: Cynomolgus Monkeys from Labcorp 8298417 Maintained at Labcorp-Madison
F.2 Pharmaceutical Formulation and Administration
Test compound was dissolved in the vehicle of 10% DMSO, 10% ethanol, 40% polyethylene glycol 300, and 40% propylene glycol to get 0.5 mg/mL test compound solution. The compound was administered by intravenous administration at a dose of 1 mL/kg. The intravenous dose was administered as a bolus injection followed by an approximately 2-hour infusion via an indwelling catheter in a saphenous or cephalic vein. Fasting was not required.
• Collection time: • PK for Plasma: Predose, 0.25, 1, 1.5 and 2 hours postdose (based on start of infusion) • PK for Whole Blood: 1.5 hour postdose • Anticogulant: K2EDTA • Volume: • PK for Plasma: Approximately 0.5 mL • PK for Whole Blood: Approximately 0.1 mL • Collection Site: Femoral vein; saphenous or cephalic vein

[3] = brain Kp = [brain]/[plasma], cyno, read-out: Cyno brain Kp
[4] = brain Kpu,u = Kp * (plasma free/rat brain free), read-out: Cyno brain Kpu,u

Row | GI50 [1] | Kp [2, 3] | Kp [2, 4] | SMILES | IC50 (hERG ion channel)
1 | 23 nM | 0.95 | 0.12 | Nc1nc2cnc(C(=O)N3CCC[C@@H]4Oc5cc(OC(F)(F)F)cc(F)c5[C@@H]43)cc2n2cncc12 (single isomer, unassigned) [Fg-55] | 6200 nM
2 |  | 2.4 | 0.51 | Cc1ncn2c1c(N)nc1cnc(C(=O)N3CCC[C@@H]4Oc5cc(C(F)(F)F)ccc5[C@@H]43)cc12 [Ff-499, (4-amino-3-methylimidazo[1,5-a]pyrido[3,4-e]pyrazin-8-yl)((4aS,9bS)-7-(trifluoromethyl)-3,4,4a,9b-tetrahydrobenzofuro[3,2-b]pyridin-1(2H)-yl)methanone] | 17500 nM
3 |  |  |  | Nc1nc2cc(F)c(C(=O)N3CCO[C@@H]4Cc5cc(C(F)(F)F)ccc5[C@@H]43)cc2n2cncc12 (single isomer, unassigned) [Ff-82] | > 30000 nM
4 | 5 nM | 1.78 | 0.19 | Nc1nc2cc(F)c(C(=O)N3CCC[C@@H]4Oc5cc(C(F)(F)F)ccc5[C@@H]43)cc2n2cncc12 [Ff-104, (4-amino-7-fluoroimidazo[1,5-a]quinoxalin-8-yl)((4aS,9bS)-7-(trifluoromethyl)-3,4,4a,9b-tetrahydrobenzofuro[3,2-b]pyridin-1(2H)-yl)methanone] | 14200 nM
5 | 19 nM |  |  | C[C@@H]1CN(C(=O)c2cc3c(cc2F)nc(N)c2cncn23)[C@H]2c3ccc(OC(F)(F)F)cc3C[C@H]2O1 (single isomer, unassigned) [Ff-183] | 
6 |  | 1.2 | 0.28 | C[C@@H]1CN(C(=O)c2cc3c(cc2F)nc(N)c2cncn23)[C@H]2c3cc(F)c(OC(F)(F)F)cc3C[C@H]2O1 (single isomer, unassigned) [Ff-197] | 11900 nM
7 | 10 nM |  |  | Nc1nc2cnc(C(=O)N3CCC[C@@H]4Oc5cc(OC(F)(F)F)ccc5[C@@H]43)cc2n2cncc12 [Ff-341, (4-aminoimidazo[1,5-a]pyrido[3,4-e]pyrazin-8-yl)((4aS,9bS)-7-(trifluoromethoxy)-3,4,4a,9b-tetrahydrobenzofuro[3,2-b]pyridin-1(2H)-yl)methanone] | 
8 | 120 nM | 0.76 | 0.1 | Nc1nc2cnc(C(=O)N3CCC[C@@H]4Oc5cc(C(F)(F)F)ccc5[C@@H]43)cc2n2cncc12 [Ff-110, (4-aminoimidazo[1,5-a]pyrido[3,4-e]pyrazin-8-yl)((4aS,9bS)-7-(trifluoromethyl)-3,4,4a,9b-tetrahydrobenzofuro[3,2-b]pyridin-1(2H)-yl)methanone] | 8470 nM
9 | 9 nM | 0.99 | 0.16 | Nc1nc2cnc(C(=O)N3CCC[C@@H]4Oc5cc(C(F)(F)F)cc(F)c5[C@@H]43)cc2n2cncc12 (single isomer, unassigned) [Fg-53] | 9950 nM
10 | 12 nM |  |  | Nc1nc2cnc(C(=O)N3CC4(CC4)C[C@@H]4Oc5cc(C(F)(F)F)ccc5[C@@H]43)cc2n2cncc12 [Ff-648, (4-aminoimidazo[1,5-a]pyrido[3,4-e]pyrazin-8-yl)((4aS,9bS)-7-(trifluoromethyl)-4a,9b-dihydro-2H-spiro[benzofuro[3,2-b]pyridine-3,1′-cyclopropan]-1(4H)-yl)methanone] | 
11 | 25 nM | 0.96 | 0.13 | C[C@H]1CN(C(=O)c2cc3c(cc2F)nc(N)c2cncn23)[C@H]2c3ccc(C(F)(F)F)cc3C[C@H]2O1 (single isomer, unassigned) [Ff-81] | 27700 nM
12 |  |  |  | Nc1nc2cnc(C(=O)N3CC[C@H]4C[C@@H]3c3c(F)cc(C(F)(F)F)cc3O4)cc2n2cncc12 (single isomer, unassigned) [Ff-694] | 16200 nM
13 | 23 nM | 1.1 | 0.32 | Cc1ncc2c(N)nc3cnc(C(=O)N4CCC[C@@H]5Oc6cc(OC(F)(F)F)ccc6[C@@H]54)cc3n12 [Ff-340, (4-amino-1-methylimidazo[1,5-a]pyrido[3,4-e]pyrazin-8-yl)((4aS,9bS)-7-(trifluoromethoxy)-3,4,4a,9b-tetrahydrobenzofuro[3,2-b]pyridin-1(2H)-yl)methanone] | 
14 | 11 nM | 1.1 | 0.23 | Nc1nc2ccc(C(=O)N3CCC[C@@H]4Oc5cc(C(F)(F)F)ccc5[C@@H]43)cc2n2cncc12 [Ff-111, (4-aminoimidazo[1,5-a]quinoxalin-8-yl)((4aS,9bS)-7-(trifluoromethyl)-3,4,4a,9b-tetrahydrobenzofuro[3,2-b]pyridin-1(2H)-yl)methanone] | 6700 nM
